Calls of active or inactive are those of the source. The rule behind the calls is not given here.
The molecules below were run against Peptidyl-prolyl cis-trans isomerase FKBP1A (Homo sapiens) (UniProt P62942) (assay: small-molecule binding to FKBP12 – biophysical, NMR detection (AID 608)). Conditions: purified FKBP12.
Peptidyl-prolyl cis-trans isomerase FKBP1A (Homo sapiens), sequence (P62942 whole entry, looked up): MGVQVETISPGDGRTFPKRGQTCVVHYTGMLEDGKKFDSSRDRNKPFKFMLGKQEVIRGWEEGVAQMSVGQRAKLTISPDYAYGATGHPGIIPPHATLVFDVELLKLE
For `COC(=O)c1cccc2cc[nH]c12`, the Kd was > 4 mM (inactive). `O=C(O)c1cc(O)c2c(c1)[C@@H]([C@H]1c3cc(C(=O)O)cc(O)c3C(=O)c3c(O[C@H]4O[C@H](CO)[C@@H](O)[C@H](O)[C@H]4O)cccc31)c1cccc(O[C@H]3O[C@H](CO)[C@@H](O)[C@H](O)[C@H]3O)c1C2=O` was tested, and the Kd was > 4 mM (inactive). For `CN1C(=O)Cc2cc(S(N)(=O)=O)ccc21`, the Kd was > 4 mM (inactive). `CNC(=O)C(=O)Nc1ccc(F)cc1` was tested, and the Kd was > 4 mM (inactive). With `CC(C)c1c(O)ccc2c1CCC1[C@@](C)(C=O)CCC[C@]21C` (stereo partly drawn) the Kd was > 4 mM (inactive). With `NCc1ccc(-n2cccn2)cc1` the Kd was > 4 mM (inactive). Work on `O=C(CSc1nnc2ccccn12)N1CCOCC1` yielded a Kd of 0.221 mM. `CCN1C(=O)N(CO)C2C1N(C)C(=O)N2C` (stereo not drawn) was tested, and the Kd was > 4 mM (inactive). `Cc1nn2c(-c3ccncc3)nnc2c2ccccc12` was tested, and the Kd was > 4 mM (inactive). With `CCC(C)C(=O)OC1[C@@H]2CC3=C4CC(=O)O[C@@H](c5ccoc5)[C@]4(C)CCC3C(C)(C2=O)[C@@H](CC(=O)OC)C1(C)C` (stereo partly drawn) the Kd was > 4 mM (inactive). In the case of `Cc1noc(C)c1C(=O)NC1=NCCS1`, the Kd is reported as > 4 mM (inactive). For `N#Cc1nc(-c2ccccc2Cl)oc1N1CCOCC1`, the Kd was > 4 mM (inactive). For `COc1cc(OC)c2c(=O)c(OC)c(-c3ccc(OC)c(OC)c3)oc2c1`, the Kd was > 4 mM (inactive). In the case of `CN1CCN(C(=O)/C=C\C(=O)O)CC1`, the Kd is reported as > 4 mM (inactive). With `C/C=C/C(=O)Nc1ccc(NC(C)=O)cc1` the Kd was > 4 mM (inactive). In the case of `CC(C(N)=O)N1C(=O)c2ccccc2C1=O` (stereo not drawn), the Kd is reported as > 4 mM (inactive). With `CC(CCC(=O)O)[C@H]1CCC2C3CC[C@@H]4C[C@H](O)CC[C@]4(C)C3C[C@H](O)[C@@]21C` (stereo partly drawn) the Kd was > 4 mM (inactive). With `CC(C)(O)[C@@H]1Cc2cc3ccc(=O)oc3cc2O1` the Kd was > 4 mM (inactive). In the case of `CC(C)CC(=O)NC1CCSC1=O` (stereo not drawn), the Kd is reported as > 4 mM (inactive). With `Cc1n[nH]c(=S)n(/N=C/c2cccs2)c1=O` the Kd was > 4 mM (inactive). For `O=C1CC(=O)N(c2ccccc2)C(=O)N1`, the Kd was > 4 mM (inactive). For `O=C(Nc1ccc2c(c1)CCC2)c1cnccn1`, the Kd was > 4 mM (inactive). With `CC1=C/C(=C\c2c(O)[nH]c(=O)[nH]c2=O)C(C)=N1` the Kd was > 4 mM (inactive). In the case of `Cc1nnc(SCC(=O)Nc2ccccc2)[nH]c1=O`, the Kd is reported as > 4 mM (inactive). In the case of `O=C(O)CSc1nnc(-c2cccs2)o1`, the Kd is reported as > 4 mM (inactive). For `Nc1cccc(S(N)(=O)=O)c1`, the Kd was > 4 mM (inactive). With `c1ccc(SCc2nc(-c3ccccn3)no2)cc1` the Kd was > 4 mM (inactive). In the case of `N#CCc1nc2ccccc2s1`, the Kd is reported as > 4 mM (inactive). With `COc1ccccc1NC(=O)c1ccc(Br)o1` the Kd was > 4 mM (inactive). With `O=c1[nH]c(NCCO)nnc1Cc1ccccc1` the Kd was > 4 mM (inactive). For `c1ccc(Cc2nn3c(-c4ccncc4)nnc3s2)cc1`, the Kd was > 4 mM (inactive). With `Cc1noc(C)c1C(=O)N1CCC(Cc2ccccc2)CC1` the Kd was > 4 mM (inactive). With `CN1C(=O)C(Cc2c[nH]c3ccccc23)C(=O)N(C)C1=O` the Kd was > 4 mM (inactive). For `Cc1nc2ccc(NC(=O)N3CCOCC3)cc2s1`, the Kd was > 4 mM (inactive). `C=C[C@@H](C1=CC(=O)C(OC)=C(OC)C1=O)c1ccccc1` was tested, and the Kd was > 4 mM (inactive). `O=C(O)CNCC(O)Cn1c2ccccc2c2ccccc21` (stereo not drawn) was tested, and the Kd was > 4 mM (inactive). In the case of `C[C@H]1CCCC(=O)CCC/C=C/c2cc(O)cc(O)c2C(=O)O1`, the Kd is reported as > 4 mM (inactive). In the case of `COc1ccccc1-c1n[nH]c(=O)o1`, the Kd is reported as > 4 mM (inactive). `O=c1nc(N2CCOCC2)nc2n1CCO2` was tested, and the Kd was > 4 mM (inactive). `Cc1nc2ccccc2c(=O)n1/N=C/c1ccco1` was tested, and the Kd was > 4 mM (inactive). In the case of `O=C(Nc1cccnc1)c1c(F)cccc1F`, the Kd is reported as > 4 mM (inactive). For `O=C(c1nc2ccccc2s1)N1CCSCC1`, the Kd was > 4 mM (inactive). `O=P1(O)c2ccccc2Nc2ccccc21` was tested, and the Kd was > 4 mM (inactive). With `O=C(Nc1ccncc1)Nc1ccc(F)cc1F` the Kd was > 4 mM (inactive). For `CN(C)C(=O)N1CCN(C(=O)c2ccco2)CC1`, the Kd was > 4 mM (inactive). `Cc1cc(=O)[nH]c(NCc2cccnc2)n1` was tested, and the Kd was > 4 mM (inactive). For `OCc1ccc(-n2ccnc2)cc1`, the Kd was > 4 mM (inactive). `CN(C)S(=O)(=O)c1ccc(N2CCOCC2)nc1` was tested, and the Kd was > 4 mM (inactive). For `CCCCCCCCCCCC[C@H](C(=O)O)[C@@H](C)C(=O)O`, the Kd was > 4 mM (inactive). In the case of `Cc1ccc(C(=O)Nn2cnnc2)s1`, the Kd is reported as > 4 mM (inactive). For `CC(=O)N1CCc2ccccc2C1CC(=O)O` (stereo not drawn), the Kd was > 4 mM (inactive). For `CCOC(=O)c1cnc2sccn2c1=O`, the Kd was > 4 mM (inactive). With `COc1ccccc1NC(=O)c1cc[n+]([O-])cc1` the Kd was > 4 mM (inactive). With `Nc1ccn(C2O[C@H](CO)[C@@H](O)[C@H]2O)c(=O)n1` (stereo partly drawn) the Kd was > 4 mM (inactive). For `CCOC(=O)c1c(C)cc(OC)cc1O`, the Kd was > 4 mM (inactive). For `Nc1ncnc(Nc2ccccc2C(F)(F)F)n1`, the Kd was > 4 mM (inactive). For `Cc1ccc(-c2cc(C(=O)N3CCCC3)no2)cc1`, the Kd was > 4 mM (inactive). For `c1ccc(CCNc2ncnc3nc[nH]c23)cc1`, the Kd was > 4 mM (inactive). With `CCN1CCC(=NO)CC1` the Kd was > 4 mM (inactive). `O=C(O)C1Cc2ccccc2O1` (stereo not drawn) was tested, and the Kd was > 4 mM (inactive). For `CC(=O)c1cc(CN2C(=O)c3ccccc3C2=O)cs1`, the Kd was > 4 mM (inactive). In the case of `CC(=O)c1cnc(Nc2nc(C)c3ccccc3n2)nc1C`, the Kd is reported as > 4 mM (inactive). With `O=C1C=CC2=C3c4cc(O)c(O)cc4CC3(O)COC2=C1O` (stereo not drawn) the Kd was > 4 mM (inactive). For `CC(=O)O[C@H]1C[C@@H](OC(C)=O)C(C)(C)C2C[C@@H](OC(C)=O)[C@@]3(C)C4=CC(=O)O[C@@H](c5ccoc5)[C@]4(C)CCC3[C@]21C` (stereo partly drawn), the Kd was > 4 mM (inactive). `Cn1nnc2cc(C(=O)NC3CCCCC3)ccc21` was tested, and the Kd was > 4 mM (inactive). In the case of `Cc1ccc(/C=C2/NC(=S)NC2=O)s1`, the Kd is reported as > 4 mM (inactive). `COc1ccc2cc1Oc1ccc(cc1)C[C@H]1c3cc(c(OC)cc3CCN1C)Oc1c(OC)c(OC)cc3c1[C@H](C2)N(C)CC3` was tested, and the Kd was > 4 mM (inactive). With `C/C=C/c1ccc2c(c1)OCO2` the Kd was > 4 mM (inactive). For `Cc1ccc(OCC(=O)N2CCOCC2)c(C)c1`, the Kd was “inactive”. `O=C1NC(=O)/C(=C/c2ccc(O)cc2)N1` was tested, and the Kd was > 4 mM (inactive). For `Cc1nn2c(nc1=O)SCC2(O)c1ccccc1` (stereo not drawn), the Kd was > 4 mM (inactive). In the case of `Cc1oc(-c2ccccc2)nc1CCO`, the Kd is reported as > 4 mM (inactive). `O=c1[nH]cc(NCc2ccco2)c(=O)[nH]1` was tested, and the Kd was > 4 mM (inactive). `COc1ccc2c(c1)OC/C(=C/c1ccc(OC)c(OC)c1)C2=O` was tested, and the Kd was > 4 mM (inactive). For `Cc1nn(CC(=O)N2CCCCC2)c(=O)c2ccccc12`, the Kd was > 4 mM (inactive). For `Cn1ccnc1C(O)c1ccccc1` (stereo not drawn), the Kd was > 4 mM (inactive). `O=c1n(-c2ccccc2)c(=O)n2n1CCCC2` was tested, and the Kd was > 4 mM (inactive). With `CC(=O)Nc1c(C)n(C)n(-c2ccccc2)c1=O` the Kd was > 4 mM (inactive). For `COc1ccc(-c2cc(=O)c3c(O)c(OC)c(O[C@H]4O[C@H](CO[C@@H]5O[C@@H](C)[C@H](O)[C@@H](O)[C@H]5O)[C@@H](O)[C@H](O)[C@H]4O)cc3o2)cc1`, the Kd was > 4 mM (inactive). For `O=C(O)/C=C/C=C/c1ccccc1`, the Kd was > 4 mM (inactive). In the case of `CCCCNS(=O)(=O)c1ccc(OCC(=O)N2CCOCC2)cc1`, the Kd is reported as “inactive”. In the case of `CC(C)(C)P(=O)(O)c1ccccc1`, the Kd is reported as > 4 mM (inactive). With `CC1=C(/C=C/C(C)=C/C=C/C(C)=C/C=C/C=C(C)/C=C/C=C(C)/C=C/C2=C(C)CCCC2(C)C)C(C)(C)CCC1` the Kd was > 4 mM (inactive). For `Cc1noc(-c2ccccc2)c1CO`, the Kd was > 4 mM (inactive). For `Cc1nc2sc3c(c2c(=N)n1N)CC(C)(C)OC3`, the Kd was > 4 mM (inactive). With `C=CCn1c(N)c(C(=O)N2CCOCC2)sc1=S` the Kd was > 4 mM (inactive). `CC(=O)O[C@H]1C[C@@H](OC(C)=O)C(C)(C)C2CC(=O)[C@]3(C)C(CC[C@@]4(C)[C@H](C(=O)O)OC(=O)C5OC543)[C@]21C` (stereo partly drawn) was tested, and the Kd was > 4 mM (inactive). With `CC(=O)Nc1ccc(S(=O)(=O)NCC2CCCO2)cc1` (stereo not drawn) the Kd was > 4 mM (inactive). In the case of `Cc1cc(C(=O)N2CCCCCC2)cs1`, the Kd is reported as > 4 mM (inactive). For `CCOC(=O)c1c(C)[nH]c2ccc(O)cc12`, the Kd was > 4 mM (inactive). For `CC(=O)NC(=S)Nc1cccc(C(=O)O)c1C`, the Kd was > 4 mM (inactive). `O=C1CC(N2CCC(O)CC2)C(=O)N1c1ccc(F)cc1` (stereo not drawn) was tested, and the Kd was > 4 mM (inactive). `O=C1c2cccnc2C(=O)N1Cc1ccc2c(c1)OCO2` was tested, and the Kd was > 4 mM (inactive). For `COC(=O)c1cnccc1C(F)(F)F`, the Kd was > 4 mM (inactive). `CCNC(=S)N1CCCC(C(N)=O)C1` (stereo not drawn) was tested, and the Kd was > 4 mM (inactive). `CC(C)(C)CC(=O)NC1=NCCS1` was tested, and the Kd was > 4 mM (inactive). For `CC(=O)Nc1ccc(C(=O)n2nc(C)cc2C)cc1`, the Kd was > 4 mM (inactive). In the case of `CC(C)Oc1ccc(C2CC(=O)NNC2=O)cc1` (stereo not drawn), the Kd is reported as > 4 mM (inactive). In the case of `O=c1[nH]nc(Cc2ccncc2)c2ccccc12`, the Kd is reported as > 4 mM (inactive). In the case of `NC(=O)C1CC2C=CC1C2` (stereo not drawn), the Kd is reported as > 4 mM (inactive). With `CSc1ncc(CO)n1Cc1ccccc1` the Kd was > 4 mM (inactive). In the case of `N/C(=N/O)C1COc2ccccc2O1` (stereo not drawn), the Kd is reported as > 4 mM (inactive). For `C=C[C@H]1CN2CC[C@H]1C[C@H]2[C@H](O)c1ccnc2ccccc12`, the Kd was > 4 mM (inactive). `CC(=O)Nc1ccc(S(=O)(=O)NC2=NCCS2)cc1` was tested, and the Kd was > 4 mM (inactive). For `COc1ccc2c3c1O[C@H]1C[C@@H](O)C=C[C@@]31CCN(C)C2`, the Kd was > 4 mM (inactive). In the case of `Cc1csc(SCC(=O)N2CCCC2)n1`, the Kd is reported as > 4 mM (inactive). In the case of `O=C1c2ccccc2C(=O)c2c(O)c(O)cc(O)c21`, the Kd is reported as > 4 mM (inactive). With `Nc1ncnc2c1ncn2CCOc1ccccc1` the Kd was > 4 mM (inactive). In the case of `Cc1nc2ccccc2c(=O)[nH]1`, the Kd is reported as > 4 mM (inactive). In the case of `Cc1cc(O)c2c(c1O)C(=O)c1c(O)cc(C)c(O)c1C2=O`, the Kd is reported as > 4 mM (inactive). `COc1c(CC=C(C)C)c2c(c3oc(=O)c(-c4ccc(O)cc4)c(O)c13)C=CC(C)(C)O2` was tested, and the Kd was > 4 mM (inactive). With `COc1cccc(/C=C/C(=O)O)c1C(C)C` the Kd was > 4 mM (inactive). `COc1cccc(NC(=O)c2nc3ncccn3n2)c1` was tested, and the Kd was > 4 mM (inactive).

Reference: PubChem BioAssay AID608 (Sanford-Burnham Center for Chemical Genomics, 2007)
